ChEMBL document CHEMBL1201862, “PubChem BioAssay data set” (2004)
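Results reflect a 48-hour exposure of cells in 96-well plates to compound at five concentrations. Here, GI50 denotes the concentration required for 50% inhibition of growth.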 Active and inactive are the calls of the source. Rule as the data show it: active = GI50 up to about 1.1 µM and inactive = higher.

Columns and labels:
Experiment in all cases: growth of human tumour cells (NCI), 48 h
PC-3 = tested on: PC-3
ACHN = tested on: ACHN
SR = tested on: SR
KM12 = tested on: KM12
MDA-N = tested on: MDA-N
HCC 2998 = tested on: HCC 2998
OVCAR-3 = tested on: OVCAR-3
CCRF-CEM = tested on: CCRF-CEM
OVCAR-8 = tested on: OVCAR-8
T47D = tested on: T47D
SF-539 = tested on: SF-539
TK-10 = tested on: TK-10
Malme-3M = tested on: Malme-3M
HL-60 = tested on: HL-60
EKVX = tested on: EKVX
MCF7 = tested on: MCF7
U-251 = tested on: U-251
OVCAR-4 = tested on: OVCAR-4
DU-145 = tested on: DU-145
SK-MEL-28 = tested on: SK-MEL-28

SMILES	GI50 (PC-3)	GI50 (ACHN)	GI50 (SR)	GI50 (KM12)	GI50 (MDA-N)	GI50 (HCC 2998)	GI50 (OVCAR-3)	GI50 (CCRF-CEM)	GI50 (OVCAR-8)	GI50 (T47D)	GI50 (SF-539)	GI50 (TK-10)	GI50 (Malme-3M)	GI50 (HL-60)	GI50 (EKVX)	GI50 (MCF7)	GI50 (U-251)	GI50 (OVCAR-4)	GI50 (DU-145)	GI50 (SK-MEL-28)
CC(C)C(C/C=C1/CC(CO)(COC(=O)CC(C(C)C)C(C)C)OC1=O)C(C)C (stereo not given)	4.85 µM (inactive)	1.79 µM (inactive)	17.1 µM (inactive)	6.82 µM (inactive)	11.5 µM (inactive)	2.89 µM (inactive)	13.8 µM (inactive)	2.74 µM (inactive)	16.1 µM (inactive)	0.982 µM (active)	11.2 µM (inactive)	2.08 µM (inactive)	10.7 µM (inactive)	0.0931 µM (active)	1.79 µM (inactive)	13.6 µM (inactive)	11.6 µM (inactive)	17.3 µM (inactive)	13.2 µM (inactive)	14.2 µM (inactive)
CC(C)(C)c1nc2c(o1)C(=O)c1ccccc1C2=O	0.505 µM (active)	2.28 µM (inactive)	3.16 µM (inactive)	2.75 µM (inactive)	0.199 µM (active)	4.25 µM (inactive)	0.721 µM (active)	1.47 µM (inactive)	0.92 µM (active)	0.627 µM (active)	1.12 µM (inactive)	5.65 µM (inactive)	0.574 µM (active)	0.718 µM (active)	2.68 µM (inactive)	0.485 µM (active)	1.72 µM (inactive)	0.853 µM (active)	1.1 µM (active)	1.95 µM (inactive)
CC(C)(C)COS(=O)OCC(C)(C)C	> 100 µM (inactive)	> 100 µM (inactive)	> 100 µM (inactive)	> 100 µM (inactive)	> 100 µM (inactive)	> 100 µM (inactive)	> 100 µM (inactive)	> 100 µM (inactive)	> 100 µM (inactive)	> 100 µM (inactive)	> 100 µM (inactive)	> 100 µM (inactive)	> 100 µM (inactive)	> 100 µM (inactive)	> 100 µM (inactive)	> 100 µM (inactive)	> 100 µM (inactive)	> 100 µM (inactive)	> 100 µM (inactive)	> 100 µM (inactive)
Cc1ccc(S(=O)(=O)NC(=O)NCC(=O)NCC(=O)O)cc1	> 100 µM (inactive)	> 100 µM (inactive)	> 100 µM (inactive)	> 100 µM (inactive)	> 100 µM (inactive)	> 100 µM (inactive)	> 100 µM (inactive)	> 100 µM (inactive)	> 100 µM (inactive)	> 100 µM (inactive)	> 100 µM (inactive)	> 100 µM (inactive)	> 100 µM (inactive)	> 100 µM (inactive)	> 100 µM (inactive)	> 100 µM (inactive)	> 100 µM (inactive)	> 100 µM (inactive)	> 100 µM (inactive)	> 100 µM (inactive)
NCCCCNCCCN1CC1	5.22 µM (inactive)	0.902 µM (active)	2.29 µM (inactive)	4.67 µM (inactive)	1.62 µM (inactive)	5.73 µM (inactive)	0.619 µM (active)	0.951 µM (active)	0.883 µM (active)	0.354 µM (active)	0.628 µM (active)	2.04 µM (inactive)	1.77 µM (inactive)	0.436 µM (active)	3.15 µM (inactive)	20.6 µM (inactive)	1.3 µM (inactive)	0.205 µM (active)	1.77 µM (inactive)	1.72 µM (inactive)
Cn1ccnc1CCc1ccc(F)cc1F	> 100 µM (inactive)	> 100 µM (inactive)	> 100 µM (inactive)	> 100 µM (inactive)	> 100 µM (inactive)	> 100 µM (inactive)	> 100 µM (inactive)	> 100 µM (inactive)	> 100 µM (inactive)	> 100 µM (inactive)	> 100 µM (inactive)	> 100 µM (inactive)	> 100 µM (inactive)	> 100 µM (inactive)	> 100 µM (inactive)	> 100 µM (inactive)	> 100 µM (inactive)	> 100 µM (inactive)	> 100 µM (inactive)	> 100 µM (inactive)
CCN(CC)CCOC(=O)Cc1cccc2c(=O)cc(-c3ccccc3)oc12	49.3 µM (inactive)	45.2 µM (inactive)	24.4 µM (inactive)	34.8 µM (inactive)	22.3 µM (inactive)	44.6 µM (inactive)	52.8 µM (inactive)	34.4 µM (inactive)	51.4 µM (inactive)	30.4 µM (inactive)	44.1 µM (inactive)	44.1 µM (inactive)	39.3 µM (inactive)	36.3 µM (inactive)	40.7 µM (inactive)	54.1 µM (inactive)	50.2 µM (inactive)	35.9 µM (inactive)	40.3 µM (inactive)	54 µM (inactive)
